# Assay results: patent US20170112861A1, “DRUG DELIVERY ENHANCER COMPRISING SUBSTANCE FOR ACTIVATING LYSOPHOSPHOLIPID RECEPTORS” (Osaka University, priority 2014, published 2017)
# Columns and labels:
# [1] = test system: LLC cell tumors; assay: Doxorubicin delivery from tumor blood vessels to tumor tissues after LPA administration; format: in vivo; conditions: LLC tumor-bearing mice, LPA 3 mg/kg i.p., doxorubicin 1.5 mg/kg i.v. 24 hours later, tumors harvested after 20 minutes
# Description: LLC cells were subcutaneously inoculated into C57BL/6 NCrSlc mice aged 8 weeks (females, SLC, Inc.) in the same manner as in Example 1. An LPA administration solution was prepared in the same manner as in Example 1. On day 11 post-inoculation of LLC cells, mice with a tumor volume of 100 to 120 mm^3 were selected. The mice were divided into two groups: control group and LPA group (n=3). LPA (3 mg/kg in 100 μL PBS) or PBS (100 μL) was administered intraperitoneally. At 24 hours after LPA or PBS administration, doxorubicin (doxorubicin hydrochloride, Nippon Kayaku Co., Ltd.) was administered to the tail vein of the mice at a dose of 1.5 mg/kg under anesthesia with pentobarbital. The doxorubicin was prepared as a solution by dissolving and diluting the doxorubicin hydrochloride in physiological saline (Otsuka Pharmaceutical Co., Ltd.) to a concentration of 1.5 mg/kg and homogenizing the solution with an ultrasonic cleaner for 1 minute before administration. Doxorubicin is an autofluorescent anticancer drug that can be detected at an excitation wavelength of 480 nm and a measurement wavelength of 575 nm. At 20 minutes after administration of doxorubicin, the tumors were harvested from the mice, and the tumor specimens were prepared in the same manner as in Example 1 except that the thickness of the sections was 20 μm. […]
# [2] = test system: Mouse pancreatic vascular endothelial cell line (MS-1); assay: In vitro barrier function of endothelial cell-cell junctions (ECIS-Zθ, resistance between cells Rb); format: cell-based; conditions: MS-1 cells, 10 μM
# Description: In vitro barrier function of the cell-cell junctions of vascular endothelial cells in the presence of LPA or VPC 31144 (S) was analyzed using a real-time cell ECIS-Zθ analyzer (Applied Biophysics).
# LPA and VPC 31144 (S) were each dissolved in 50% ethanol as a 10 mM LPA stock solution and stored at −30° C. Before use, the LPA stock solution was thawed and homogenized with an ultrasonic cleaner (SND Co., Ltd.) for 1 minute. The solution was diluted in a serum-free culture medium supplemented with 0.1% BSA to a concentration of 10 μM.
# Mouse pancreatic vascular endothelial cell line (MS-1) was used. The cells were suspended in DMEM (Sigma) containing 5% FBS. The cell suspension was seeded on a well plate with electrodes (8W10E+, 8 wells) specially designed for the analyzer at a density of 1×10^5 cells in 400 μL per well, and the cells were cultured overnight in an incubator to confluence. The medium was replaced by serum-free culture medium containing 0.1% BSA, and the cells were incubated for 4 hours. The medium was replaced by culture medium (serum-free culture medium containing 0.1% BSA) containing 10 μM LPA or VPC 31144 (S). The medium of the control cultures was replaced by serum-free culture medium containing 0.1% BSA. After replacement of the medium, resistance between cells (Rb) was measured in real time to evaluate the barrier function.
# [3] = test system: LLC cells; assay: Combined administration of LPA and 5-FU, tumor growth in LLC cell tumor-bearing mice; format: in vivo
# Description: (§1) LLC cells were subcutaneously inoculated into C57BL/6 NCrSlc mice aged 8 weeks in the same manner as in Example 1. An LPA administration solution was prepared in the same manner as in Example 1. The anticancer drug used was 5-FU (Kyowa Hakko Kirin Co., Ltd.). The 5-FU was prepared as a solution in physiological saline (Otsuka Pharmaceutical Co., Ltd.). On day 7 post-inoculation of LLC cells, mice with a tumor volume of 30 to 50 mm^3 were selected and subjected to the test. The mice were divided into four groups: control group, 5-FU group, LPA group and 5-FU/LPA group (n=3). LPA (3 mg/kg in 100 μL PBS) or 5-FU (100 mg/kg in 100 μL PBS) or PBS (100 μL) was administered intraperitoneally. To 5-FU/LPA group, both LPA and 5-FU were administered intraperitoneally. LPA and PBS were administered once daily for consecutive seven days. 5-FU was administered twice in total, once a week for two weeks (on days 7 and 14 post-inoculation). The tumor size was measured over time after start of administration. The tumor volume was calculated by the formula: volume=length×width×height×0.5. Mice at 2 weeks after start of administration were photographed with a digital camera under anesthesia with pentobarbital. The tumors were harvested and photographed with a digital camera.
# [4] = test system: Mouse colon cancer colon 26 cells; assay: Combined administration of LPA and 5-FU, tumor growth in colon 26 cell tumor-bearing mice; format: in vivo; conditions: colon 26 tumors in BALB/c mice; LPA 3 mg/kg i.p. once daily for seven days; 5-FU 100 mg/kg i.p. on days 7 and 14
# Description: as §1
# Mouse colon cancer colon 26 cells were used. […]
substance,measurement,setting,value
lysophosphatidic acid [LPA],delivery of doxorubicin from blood vessels to tumor,[1],delivery of doxorubicin from the blood vessels to tumors in the deep lobe was observed
same,duration of the increased barrier function,[2],the increased barrier function in endothelial cells was maintained over a long period of time
same,"electric resistance (Rb), barrier function in endothelial cells","[2]; serum-free medium with 0.1% BSA, vs control",increased the electric signals as compared with the control
same,tumor growth (tumor volume),"[3]; LLC tumors, LPA 3 mg/kg i.p. once daily for seven days, 5-FU 100 mg/kg i.p. on days 7 and 14",some inhibitory effects on tumor growth as compared with the control
same,appearance of tumors (blood flow),[3]; LPA alone 3 mg/kg i.p. once daily for seven days,"the tumors appeared reddish, indicating an increase in the blood flow"
same,tumor growth (tumor volume),[4],"some inhibitory effects on tumor growth as compared with the control, up to day 17 post-inoculation"
